Data as given in patent EP4603105A1, “PHARMACEUTICAL COMPOSITION CONTAINING CYCLIC COMPOUND HAVING SELECTIVE KRAS INHIBITORY EFFECT AGAINST HRAS AND NRAS” (CHUGAI SEIYAKU KABUSHIKI KAISHA, priority 2022, dated 2024).
Where a SMILES comes first, the peptide text is derived from it. Bridges are numbered along the chain shown (N, C = ends). [ ]: non-standard residue; d: D form. The star is where a group is joined. hPhe(3-Cl-4-CF3) = N[C@@H](CCc1ccc(C(F)(F)F)c(Cl)c1)C(=O)O; NPrPhe(4-CF3) = CCCN[C@@H](Cc1ccc(C(F)(F)F)cc1)C(=O)O; NMeGly(cPent) = CN[C@H](C(=O)O)C1CCCC1; Pro(4S-Me) = C[C@@H]1CN[C@H](C(=O)O)C1; NMeD = CN[C@@H](CC(=O)O)C(=O)O; NMeL = CN[C@@H](CC(C)C)C(=O)O; Morpholide = C1CN(*)CCO1; Ac5c = NC1(C(=O)O)CCCC1; Aze = O=C(O)[C@@H]1CCN1; Sar = CNCC(=O)O

How the values were obtained:
HRAS wild-type protein = HRAS wild-type protein (Homo sapiens, UniProt P01112); experiment: Binding to HRAS by surface plasmon resonance (SPR), KD and KD ratio to KRAS
Summary of the method: (§1)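 Measured at 30°C: SPR with GDP-loaded, E. coli-expressed biotin-Avi RAS captured (~100–300 RU), ascending 75 s compound injections, HBS pH 7.4 with GDP, MgCl2, 4% DMSO. KD from 1:1 fit.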

[1] = test system: human lung cancer strain NCI-H441; format: cell-based
Summary of the method: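 Signal came from […] measured per well once the reagent was added. Beforehand, cells were cultured at 37°C and 5% carbon dioxide on a compound series serially diluted in dimethyl sulfoxide.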

[2] = biological target: GDP-bound NRAS wild-type protein (Homo sapiens, UniProt P01111); experiment: Binding to NRAS by surface plasmon resonance (SPR), KD and KD ratio to KRAS
Summary of the method: as §1

[3] = biological target: GDP-bound KRAS wild-type protein (Homo sapiens, UniProt P01116); experiment: Binding to KRAS by surface plasmon resonance (SPR), dissociation constant KD; settings: 1:1 binding model
Summary of the method: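 Affinity is measured by surface plasmon resonance at 30°C against captured, GDP-loaded RAS carrying a biotinylated Avi tag. Compounds are titrated by single-cycle kinetics, and KD comes from a 1:1 fit.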

[4] = ratio of KD for HRAS wild-type protein to KD for KRAS
[5] = ratio of KD for GDP-bound NRAS wild-type protein to KD for KRAS
[6] = ratio of the KD value with respect to HRAS wild-type protein to the KD value with respect to KRAS
[7] = ratio of the KD value with respect to GDP-bound NRAS wild-type protein to the KD value with respect to KRAS
[8] = ratio of KD value for HRAS wild-type protein to KD value for KRAS (SPR)
[9] = ratio of KD value for GDP-bound NRAS wild-type protein to KD value for KRAS (SPR)

Chain of GDP-bound KRAS wild-type protein (P01116 1-188 isoform P01116-2): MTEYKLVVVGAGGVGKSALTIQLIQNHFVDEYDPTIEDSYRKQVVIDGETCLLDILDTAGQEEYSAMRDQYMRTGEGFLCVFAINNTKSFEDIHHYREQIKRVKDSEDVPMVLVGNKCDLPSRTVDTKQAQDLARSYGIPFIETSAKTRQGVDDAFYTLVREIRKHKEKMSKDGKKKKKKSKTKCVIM
Chain of GDP-bound NRAS wild-type protein (P01111 whole entry): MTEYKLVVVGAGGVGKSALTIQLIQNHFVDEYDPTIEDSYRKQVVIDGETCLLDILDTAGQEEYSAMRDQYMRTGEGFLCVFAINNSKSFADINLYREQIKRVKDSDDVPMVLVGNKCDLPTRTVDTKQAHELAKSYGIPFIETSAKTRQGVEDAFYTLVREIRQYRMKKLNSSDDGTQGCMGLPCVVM
Chain of HRAS wild-type protein (P01112 whole entry): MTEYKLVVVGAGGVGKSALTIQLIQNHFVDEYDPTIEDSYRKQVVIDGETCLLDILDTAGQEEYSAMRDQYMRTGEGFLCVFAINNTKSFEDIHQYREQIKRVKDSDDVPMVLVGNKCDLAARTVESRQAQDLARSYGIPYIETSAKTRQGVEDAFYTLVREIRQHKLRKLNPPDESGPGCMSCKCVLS

| Structure (SMILES) | HRAS /KRAS (HRAS wild-type protein; [4]) | IC50 [1] [nM] | NRAS /KRAS [2, 5] | Kd [3] [nM] | HRAS /KRAS (HRAS wild-type protein; [6]) | NRAS /KRAS [2, 7] | Kd ([3]; Single Cycle Kinetics) [nM] | HRAS /KRAS (HRAS wild-type protein; [8]) | NRAS /KRAS [2, 9] |
| --- | --- | --- | --- | --- | --- | --- | --- | --- | --- |
| CCC[C@H]1C(=O)N[C@@H]([C@@H](C)CC)C(=O)N(C)CC(=O)N(C)[C@H]2C/C=C\CCN(C2=O)[C@@H](Cc2ccc(C)cc2)C(=O)N(C)CC(=O)N[C@@H](CCc2ccc3c(C)cn(C)c3c2)C(=O)N2C[C@H](OCC)C[C@H]2C(=O)NC2(CC(C)(C)C2)C(=O)N(C)[C@@H](C(CC)CC)C(=O)N(C)[C@H](C(=O)N(C)C)CC(=O)N1C [PP2910] | A (a compound having 10 or more and less than 20 is denoted as A) | 39.8 | AA (a compound having 20 or more is denoted as AA) | 3 |  |  |  |  |  |
| CCC[C@H]1C(=O)N[C@@H]([C@@H](C)CC)C(=O)N(CCC)CC(=O)N(C)[C@H]2C/C=C\CCN(C2=O)[C@@H](Cc2ccc(C)cc2)C(=O)N(C)CC(=O)N[C@@H](CCc2ccc(C(F)(F)F)c(OC)c2)C(=O)N2C[C@H](OCC)C[C@H]2C(=O)NC2(CC(C)(C)C2)C(=O)N(C)[C@@H](C2CCCC2)C(=O)N(C)[C@H](C(=O)N(C)C)CC(=O)N1C [PP2054] |  | 8.5 |  |  | A (a compound having 10 or more and less than 20 is denoted as A) | A (a compound having 10 or more and less than 20 is denoted as A) | 0.41 |  |  |
| CCCN1C(=O)CN(C)C(=O)[C@@H]2CCN2C(=O)[C@H]([C@@H](C)CC)NC(=O)[C@H](CC(C)C)N(C)C(=O)C[C@@H](C(=O)N2CCOCC2)N(C)C(=O)[C@H](C2CCCC2)N(C)C(=O)C2(CCCC2)NC(=O)[C@@H]2C[C@H](C)CN2C(=O)[C@H](CCc2ccc(C(F)(F)F)c(Cl)c2)NC(=O)CN(C)C(=O)[C@@H]1Cc1ccc(C(F)(F)F)cc1 [PP0453] ([NMeL]I[Aze][Sar][NPrPhe(4-CF3)][Sar][hPhe(3-Cl-4-CF3)][Pro(4S-Me)][Ac5c][NMeGly(cPent)][NMeD]-Morpholide; lactam N-11) |  | 20.3 |  |  | C (A compound having a KD ratio of 0.1 or more and less than 3 is denoted as C) | B (a compound having 3 or more and less than 10 is denoted as B) | 1.2 |  |  |
| CCO[C@@H]1C[C@H]2C(=O)NC3(CC(C)(C)C3)C(=O)N(C)[C@@H](C3CCCC3)C(=O)N(C)[C@H](C(=O)N(C)C)CC(=O)N(C)[C@@H]([C@H](C)OC)C(=O)N[C@@H]([C@@H](C)CC)C(=O)N3CCC[C@H]3C(=O)N(C)[C@H]3C/C=C\CCN(C3=O)[C@@H](Cc3ccc(C(F)(F)F)cc3)C(=O)N(C)CC(=O)N[C@@H](CCc3ccc(C(F)(F)F)c(OC)c3)C(=O)N2C1 [PP3179] | A (a compound having 10 or more and less than 20 is denoted as A) | 70.9 | A (a compound having 10 or more and less than 20 is denoted as A) | 0.77 |  |  |  |  |  |
| CCO[C@@H]1C[C@H]2C(=O)NC3(CCC3)C(=O)N(C)[C@@H](C(CC)CC)C(=O)N(C)[C@H](C(=O)N3CCOCC3)CC(=O)N(C)[C@@H](CC3CC3)C(=O)N[C@@H]([C@@H](C)CC)C(=O)N(C)CC(=O)N(C)[C@H]3C/C=C\CCN(C3=O)[C@@H](Cc3ccc(F)cc3)C(=O)N(C)CC(=O)N[C@@H](CCc3cc(F)c(C(F)(F)F)c(F)c3)C(=O)N2C1 [PP1527] |  | 143 |  |  |  |  | 0.95 | A (a compound having 10 or more and less than 20 is denoted as A) | A (a compound having 10 or more and less than 20 is denoted as A) |
| CCC[C@H]1C(=O)N[C@@H]([C@@H](C)CC)C(=O)N(C)CC(=O)N(C)[C@H]2C/C=C\CCN(C2=O)[C@@H](Cc2ccc(C)cc2)C(=O)N(C)CC(=O)N[C@@H](CCc2ccc(C(F)(F)F)c(OC)c2)C(=O)N2C[C@H](C)C[C@H]2C(=O)NC2(CCC2)C(=O)N(C)[C@@H](C2CCCC2)C(=O)N(C)[C@H](C(=O)N(C)C)CC(=O)N1C [PP1859] |  | 28.8 |  |  |  |  | 0.14 | A (a compound having 10 or more and less than 20 is denoted as A) | A (a compound having 10 or more and less than 20 is denoted as A) |
| CCC[C@H]1C(=O)N[C@@H]([C@@H](C)CC)C(=O)N(C2CC2)CC(=O)N(C)[C@H]2C/C=C\CCN(C2=O)[C@@H](Cc2ccc(C)cc2)C(=O)N(C)CC(=O)N[C@@H](CCc2ccc(Cl)c(Cl)c2)C(=O)N2C[C@H](OCC)C[C@H]2C(=O)NC2(CC(C)(C)C2)C(=O)N(C)[C@@H](CC2CC2)C(=O)N(C)[C@H](C(=O)N(C)C)CC(=O)N1C [PP2805] | A (a compound having 10 or more and less than 20 is denoted as A) | 83 | A (a compound having 10 or more and less than 20 is denoted as A) | 3.7 |  |  |  |  |  |
| CCO[C@@H]1C[C@H]2C(=O)NC3(CC(C)(C)C3)C(=O)N(C)[C@@H](C3CCCC3)C(=O)N(C)[C@H](C(=O)N(C)C)CC(=O)N(C)[C@@H]([C@H](C)OC)C(=O)N[C@@H]([C@@H](C)CC)C(=O)N(C)CC(=O)N(C)[C@H]3C/C=C\CCN(C3=O)[C@@H](Cc3ccc(C)cc3)C(=O)N(C)CC(=O)N[C@@H](CCc3ccc(C(F)(F)F)c(OC)c3)C(=O)N2C1 [PP3185] | A (a compound having 10 or more and less than 20 is denoted as A) | 16.1 | A (a compound having 10 or more and less than 20 is denoted as A) | 0.12 |  |  |  |  |  |
